We go through 22 molecules from patent US20090118274A1, “MONOCYCLIC AMINOPROPYL TETRAHYDRO-PYRAZOLO-PYRIDINE MODULATORS OF CATHEPSIN S” (priority 2007, published 2009).

The structures appear in SMILES notation.

One experiment deals with T1, Recombinant human cathepsin S (CatS) (Homo sapiens, UniProt P25774).
T1 construct: made in house
T1 sequence (P25774 115-331): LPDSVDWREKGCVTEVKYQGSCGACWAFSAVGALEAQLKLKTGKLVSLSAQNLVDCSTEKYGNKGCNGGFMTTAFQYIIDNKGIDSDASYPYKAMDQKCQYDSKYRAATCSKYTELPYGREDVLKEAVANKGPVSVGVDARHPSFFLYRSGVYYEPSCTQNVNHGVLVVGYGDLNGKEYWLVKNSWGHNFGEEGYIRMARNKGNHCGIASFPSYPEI
The experiment in a line: Recombinant human cathepsin S (CatS) fluorogenic substrate inhibition assay. It is filed as biochemical.
Settings: not given
The protocol:
Recombinant human cathepsin S (CatS) was expressed in the baculovirus system and purified in one step with a thiopropyl-sepharose column. […] The assay is run in 150 mM sodium acetate pH 5.0 containing 1.5 mM DTT and 150 mM NaCl. […] Measurements are taken every min for 20 min. The rate is calculated from the slope of the increase in fluorescence and the percent inhibition is calculated from this.
A word on the IC50: it is the concentration that gives 50% inhibition. `CS(=O)(=O)N1CCc2c(c(-c3ccc(Cl)c(CNC(=O)c4ccc(F)cc4)c3)nn2CC(O)CN2CCC2)C1` (stereo not shown) [Example 73, N-{5-[1-(3-Azetidin-1-yl-2-hydroxy-propyl)-5-methanesulfonyl-4,5,6,7-tetrahydro-1H-pyrazolo[4,3-c]pyridin-3-yl]-2-chloro-benzyl}-4-fluoro-benzamide]: the IC50 was determined as 200 nM.
Still for that read-out and setting: the same measure for `CS(=O)(=O)N1CCc2c(c(-c3ccc(Cl)c(CNC(=O)c4ccccc4)c3)nn2CCCN2CCCC2)C1` [Example 2, N-{2-Chloro-5-[5-methanesulfonyl-1-(3-pyrrolidin-1-yl-propyl)-4,5,6,7-tetrahydro-1H-pyrazolo[4,3-c]pyridin-3-yl]-benzyl}-benzamide]: 320 nM.

The experiment is the same for the next values; noted with them: average of results obtained; substrate Z-Valine-Valine-Arginine-AMC 10 μM, pH 5.0; read-out: CatS IC50.
For the molecule `CCOC(=O)C1CCN(CC(O)Cn2nc(-c3ccc(C(F)(F)F)c(CNC(=O)c4ccc(F)cc4)c3)c3c2CCN(S(C)(=O)=O)C3)CC1` (stereo not shown) [Example 103, 1-[3-(3-{3-[(4-Fluoro-benzoylamino)-methyl]-4-trifluoromethyl-phenyl}-5-methanesulfonyl-4,5,6,7-tetrahydro-pyrazolo[4,3-c]pyridin-1-yl)-2-hydroxy-propyl]-piperidine-4-carboxylic acid ethyl ester], the IC50 was 30 nM.
With `CS(=O)(=O)N1CCc2c(c(-c3ccc(Cl)c(COC(=O)c4ccc(F)cc4)c3)nn2CCCN2CCCC2)C1` [Example 3, 4-Fluoro-benzoic acid 2-chloro-5-[5-methanesulfonyl-1-(3-pyrrolidin-1-yl-propyl)-4,5,6,7-tetrahydro-1H-pyrazolo[4,3-c]pyridin-3-yl]-benzyl ester], the half-inhibitory concentration (IC50) is 1320 nM.
Same read-out and setting: the value for `CC(C)CC(=O)NCc1cc(-c2nn(CC(O)CN3CCC(C)(C)CC3)c3c2CN(S(C)(=O)=O)CC3)ccc1C(F)(F)F` (stereo not shown) [Example 251, N-(5-{1-[3-(4,4-Dimethyl-piperidin-1-yl)-2-hydroxy-propyl]-5-methanesulfonyl-4,5,6,7-tetrahydro-1H-pyrazolo[4,3-c]pyridin-3-yl}-2-trifluoromethyl-benzyl)-3-methyl-butyramide] was 300 nM; that for `CS(=O)(=O)N1CCc2c(c(-c3ccc(Cl)c(CNC(=O)c4ccc(F)cc4)c3)nn2CC(O)CN2CCC3(CCNC3=O)CC2)C1` (stereo not shown) [Example 11, N-(2-Chloro-5-{1-[2-hydroxy-3-(1-oxo-2,8-diaza-spiro[4.5]dec-8-yl)-propyl]-5-methanesulfonyl-4,5,6,7-tetrahydro-1H-pyrazolo[4,3-c]pyridin-3-yl}-benzyl)-4-fluoro-benzamide] was 90 nM.
In the case of `CS(=O)(=O)N1CCc2c(c(-c3ccc(C(F)(F)F)c(CNc4nc5ccccc5o4)c3)nn2CC(O)CN2CCCC2)C1` (stereo not shown) [Example 68, 1-{3-[3-(Benzooxazol-2-ylaminomethyl)-4-trifluoromethyl-phenyl]-5-methanesulfonyl-4,5,6,7-tetrahydro-pyrazolo[4,3-c]pyridin-1-yl}-3-pyrrolidin-1-yl-propan-2-ol], the IC50 was 750 nM.
Take `CS(=O)(=O)N1CCc2c(c(-c3ccc(C(F)(F)F)c(CNS(=O)(=O)c4ccc(F)cc4)c3)nn2CC(O)CN2CCCC2)C1` (stereo not shown) [Example 194, 4-Fluoro-N-{5-[1-(2-hydroxy-3-pyrrolidin-1-yl-propyl)-5-methanesulfonyl-4,5,6,7-tetrahydro-1H-pyrazolo[4,3-c]pyridin-3-yl]-2-trifluoromethyl-benzyl}-benzenesulfonamide]: the IC50 is 4900 nM.
As for `CC(C)=CC(=O)NCc1cc(-c2nn(CC(O)CN3CCC(NS(C)(=O)=O)CC3)c3c2CN(S(C)(=O)=O)CC3)ccc1C(F)(F)F` (stereo not shown) [Example 269, 3-Methyl-but-2-enoic acid 5-{1-[2-hydroxy-3-(4-methanesulfonylamino-piperidin-1-yl)-propyl]-5-methanesulfonyl-4,5,6,7-tetrahydro-1H-pyrazolo[4,3-c]pyridin-3-yl}-2-trifluoromethyl-benzylamide], the IC50 amounted to 30 nM.
On the same count and under the same terms, the value for `CS(=O)(=O)N1CCc2c(c(-c3ccc(C(F)(F)F)c(CNC(=O)c4ccc(O)cc4)c3)nn2CC(O)CN2CCCC2)C1` (stereo not shown) [Example 156, 4-Hydroxy-N-{5-[1-(2-hydroxy-3-pyrrolidin-1-yl-propyl)-5-methanesulfonyl-4,5,6,7-tetrahydro-1H-pyrazolo[4,3-c]pyridin-3-yl]-2-trifluoromethyl-benzyl}-benzamide] was 260 nM; that for `CS(=O)(=O)N1CCc2c(c(-c3ccc(C(F)(F)F)c(CNC(=O)c4ccc5ccccc5c4)c3)nn2CC(O)CN2CCCC2)C1` (stereo not shown) [Example 64, Naphthalene-2-carboxylic acid 5-[1-(2-hydroxy-3-pyrrolidin-1-yl-propyl)-5-methanesulfonyl-4,5,6,7-tetrahydro-1H-pyrazolo[4,3-c]pyridin-3-yl]-2-trifluoromethyl-benzylamide] was 370 nM.
The same measure, in the same setting: the same measure for `CS(=O)(=O)N1CCc2c(c(-c3ccc(Cl)c(CNC(=O)c4cccs4)c3)nn2CCCN2CCCC2)C1` [Example 241, Thiophene-2-carboxylic acid 2-chloro-5-[5-methanesulfonyl-1-(3-pyrrolidin-1-yl-propyl)-4,5,6,7-tetrahydro-1H-pyrazolo[4,3-c]pyridin-3-yl]-benzylamide]: 970 nM.
The same measure, in the same setting: the same measure for `CS(=O)(=O)N1CCc2c(c(-c3ccc(C(F)(F)F)c(CNC(=O)c4ccc(F)cc4)c3)nn2CC(O)CN2CCCC2)C1` (stereo not shown) [Example 57, 4-Fluoro-N-{5-[1-(2-hydroxy-3-pyrrolidin-1-yl-propyl)-5-methanesulfonyl-4,5,6,7-tetrahydro-1H-pyrazolo[4,3-c]pyridin-3-yl]-2-trifluoromethyl-benzyl}-benzamide]: 160 nM; for `CS(=O)(=O)N1CCc2c(c(-c3ccc(C(F)(F)F)c(CNC(=O)c4ccc(F)cc4)c3)nn2CC(O)CN2CCC(CO)CC2)C1` (stereo not shown) [Example 89, 4-Fluoro-N-(5-{1-[2-hydroxy-3-(4-hydroxymethyl-piperidin-1-yl)-propyl]-5-methanesulfonyl-4,5,6,7-tetrahydro-1H-pyrazolo[4,3-c]pyridin-3-yl}-2-trifluoromethyl-benzyl)-benzamide]: 90 nM; for `CS(=O)(=O)N1CCc2c(c(-c3ccc(C(F)(F)F)c(C(=O)Nc4ccccc4)c3)nn2CC(O)CN2CCCC2)C1` (stereo not shown) [Example 192, 5-[1-(2-Hydroxy-3-pyrrolidin-1-yl-propyl)-5-methanesulfonyl-4,5,6,7-tetrahydro-1H-pyrazolo[4,3-c]pyridin-3-yl]-N-phenyl-2-trifluoromethyl-benzamide]: 1600 nM.
Turning to `CS(=O)(=O)N1CCc2c(c(-c3ccc(Cl)c(CNC(=O)c4ccc(F)cc4)c3)nn2CC(O)CN2CCC(F)CC2)C1` (stereo not shown) [Example 82, N-(2-Chloro-5-{1-[3-(4-fluoro-piperidin-1-yl)-2-hydroxy-propyl]-5-methanesulfonyl-4,5,6,7-tetrahydro-1H-pyrazolo[4,3-c]pyridin-3-yl}-benzyl)-4-fluoro-benzamide], the IC50 was found to be 190 nM.
Still for that read-out and setting: the same measure for `COC1CCN(CC(O)Cn2nc(-c3ccc(Cl)c(CNC(=O)c4ccc(F)cc4)c3)c3c2CCN(S(C)(=O)=O)C3)CC1` (stereo not shown) [Example 75, N-(2-Chloro-5-{1-[2-hydroxy-3-(4-methoxy-piperidin-1-yl)-propyl]-5-methanesulfonyl-4,5,6,7-tetrahydro-1H-pyrazolo[4,3-c]pyridin-3-yl}-benzyl)-4-fluoro-benzamide]: 140 nM; for `CS(=O)(=O)N1CCc2c(c(-c3ccc(C(F)(F)F)c(CNC(=O)c4ccc(F)cc4)c3)nn2CC(O)CN2CCOCC2)C1` (stereo not shown) [Example 23, 4-Fluoro-N-{5-[1-(2-hydroxy-3-morpholin-4-yl-propyl)-5-methanesulfonyl-4,5,6,7-tetrahydro-1H-pyrazolo[4,3-c]pyridin-3-yl]-2-trifluoromethyl-benzyl}-benzamide]: 150 nM; for `CS(=O)(=O)N1CCc2c(c(-c3ccc(C(F)(F)F)c(CNC(=O)c4ccc(N)cc4)c3)nn2CC(O)CN2CCCC2)C1` (stereo not shown) [Example 165, 4-Amino-N-{5-[1-(2-hydroxy-3-pyrrolidin-1-yl-propyl)-5-methanesulfonyl-4,5,6,7-tetrahydro-1H-pyrazolo[4,3-c]pyridin-3-yl]-2-trifluoromethyl-benzyl}-benzamide]: 440 nM.
On the same count and under the same terms, the value for `CS(=O)(=O)N1CCc2c(c(-c3ccc(Cl)c(CNC(=O)/C=C/c4ccccc4)c3)nn2CCCN2CCCC2)C1` [Example 219, N-{2-Chloro-5-[5-methanesulfonyl-1-(3-pyrrolidin-1-yl-propyl)-4,5,6,7-tetrahydro-1H-pyrazolo[4,3-c]pyridin-3-yl]-benzyl}-3-phenyl-acrylamide] was 640 nM.
As for `CS(=O)(=O)N1CCc2c(c(-c3ccc(C(F)(F)F)c(CNC(=O)c4ccc(F)cc4)c3)nn2CC(O)CN2CCNCC2)C1` (stereo not shown) [Example 236, 4-Fluoro-N-{5-[1-(2-hydroxy-3-piperazin-1-yl-propyl)-5-methanesulfonyl-4,5,6,7-tetrahydro-1H-pyrazolo[4,3-c]pyridin-3-yl]-2-trifluoromethyl-benzyl}-benzamide], the IC50 came out at 900 nM.
In the case of `CS(=O)(=O)N1CCc2c(c(-c3ccc(Cl)c(CNC(=O)c4ccc(F)cc4)c3)nn2CC(O)CN2CCC(C(N)=O)CC2)C1` (stereo not shown) [Example 12, 1-[3-(3-{4-Chloro-3-[(4-fluoro-benzoylamino)-methyl]-phenyl}-5-methanesulfonyl-4,5,6,7-tetrahydro-pyrazolo[4,3-c]pyridin-1-yl)-2-hydroxy-propyl]-piperidine-4-carboxylic acid amide], the IC50 was found to be 70 nM.
